pIC50: −log10 of the molar value.
Tests used:
Nociceptin receptor [1] = molecular target: T1, Nociceptin receptor (Homo sapiens, UniProt P41146); test: Displacement of [125I]Tyr14-NC/OFQ from human ORL1 receptor
[2] = Lipophilicity, log D at pH 7.4 by shake-flask method; format: physicochemical; settings: buffer
Nociceptin receptor [3] = molecular target: T1, Nociceptin receptor; test: Antagonist activity at ORL1 receptor expressed in CHO cells assessed as inhibition of NC/OFQ-stimulated [35S]GTPgammaS binding; format: functional, cell-based
[4] = molecular target: Voltage-gated inwardly rectifying potassium channel KCNH2 (Homo sapiens, UniProt Q12809); test: Displacement of [35S]MK499 from human ERG expressed in HEK293 cells
Voltage-gated inwardly rectifying potassium channel KCNH2, sequence (Q12809 whole entry): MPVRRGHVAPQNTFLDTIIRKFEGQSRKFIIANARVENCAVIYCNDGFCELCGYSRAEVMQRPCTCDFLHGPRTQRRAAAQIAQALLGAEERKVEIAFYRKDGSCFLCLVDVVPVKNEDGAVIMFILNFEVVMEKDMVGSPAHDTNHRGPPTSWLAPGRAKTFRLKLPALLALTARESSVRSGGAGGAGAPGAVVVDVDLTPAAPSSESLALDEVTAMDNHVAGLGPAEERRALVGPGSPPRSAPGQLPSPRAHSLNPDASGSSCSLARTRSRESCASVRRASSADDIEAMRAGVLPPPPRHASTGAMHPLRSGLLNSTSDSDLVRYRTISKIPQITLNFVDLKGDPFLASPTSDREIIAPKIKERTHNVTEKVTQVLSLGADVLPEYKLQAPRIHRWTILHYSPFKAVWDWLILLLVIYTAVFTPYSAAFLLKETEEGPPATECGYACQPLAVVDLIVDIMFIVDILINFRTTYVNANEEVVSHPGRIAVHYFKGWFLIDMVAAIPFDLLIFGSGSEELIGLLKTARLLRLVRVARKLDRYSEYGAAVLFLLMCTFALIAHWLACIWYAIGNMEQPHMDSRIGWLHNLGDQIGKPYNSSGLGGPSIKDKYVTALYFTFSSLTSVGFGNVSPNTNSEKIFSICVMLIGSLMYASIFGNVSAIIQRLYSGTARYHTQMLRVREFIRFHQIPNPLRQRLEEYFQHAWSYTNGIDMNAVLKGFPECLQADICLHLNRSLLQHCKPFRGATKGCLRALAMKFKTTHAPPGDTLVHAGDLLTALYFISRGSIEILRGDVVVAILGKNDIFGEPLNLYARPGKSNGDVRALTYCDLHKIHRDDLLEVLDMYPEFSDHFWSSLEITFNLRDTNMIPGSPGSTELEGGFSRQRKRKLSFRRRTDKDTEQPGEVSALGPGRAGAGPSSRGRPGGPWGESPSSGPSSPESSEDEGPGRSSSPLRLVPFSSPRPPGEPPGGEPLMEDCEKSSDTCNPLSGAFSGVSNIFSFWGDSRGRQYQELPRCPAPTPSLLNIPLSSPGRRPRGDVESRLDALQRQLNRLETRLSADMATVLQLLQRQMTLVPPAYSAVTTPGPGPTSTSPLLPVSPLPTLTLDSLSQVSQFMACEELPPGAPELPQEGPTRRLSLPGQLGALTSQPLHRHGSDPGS

Mu-type opioid receptor = Mu-type opioid receptor (Homo sapiens, UniProt P35372); test: Displacement of [3H]diprenorphin from human cloned mu opioid receptor expressed in CHO cells; format: cell-based
Mu-type opioid receptor, sequence (P35372 whole entry): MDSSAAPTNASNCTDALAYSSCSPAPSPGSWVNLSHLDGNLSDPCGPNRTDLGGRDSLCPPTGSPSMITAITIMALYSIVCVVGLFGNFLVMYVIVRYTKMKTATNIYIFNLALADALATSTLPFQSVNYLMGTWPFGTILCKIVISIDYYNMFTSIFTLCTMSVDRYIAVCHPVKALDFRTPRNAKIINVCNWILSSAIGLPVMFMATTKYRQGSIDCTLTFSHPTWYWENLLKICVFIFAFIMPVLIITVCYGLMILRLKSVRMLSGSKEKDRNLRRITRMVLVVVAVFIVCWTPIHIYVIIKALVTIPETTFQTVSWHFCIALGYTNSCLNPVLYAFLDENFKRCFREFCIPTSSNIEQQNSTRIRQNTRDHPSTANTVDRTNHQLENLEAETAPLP

[5] = molecular target: Kappa-type opioid receptor (Homo sapiens, UniProt P41145); test: Displacement of [3H]U69593 from human cloned kappa opioid receptor expressed in CHO cells; format: cell-based
Kappa-type opioid receptor, sequence (P41145 whole entry): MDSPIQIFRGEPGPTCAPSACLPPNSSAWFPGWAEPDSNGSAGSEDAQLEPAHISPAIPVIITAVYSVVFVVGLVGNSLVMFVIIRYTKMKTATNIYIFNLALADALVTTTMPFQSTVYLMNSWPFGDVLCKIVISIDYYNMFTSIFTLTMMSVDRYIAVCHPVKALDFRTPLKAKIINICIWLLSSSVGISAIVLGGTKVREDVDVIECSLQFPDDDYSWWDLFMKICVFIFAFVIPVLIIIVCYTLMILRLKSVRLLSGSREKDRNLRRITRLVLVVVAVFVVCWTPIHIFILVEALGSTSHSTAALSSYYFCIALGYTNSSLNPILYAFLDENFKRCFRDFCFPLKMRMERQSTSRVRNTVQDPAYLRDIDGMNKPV

T1 sequence (P41146 whole entry): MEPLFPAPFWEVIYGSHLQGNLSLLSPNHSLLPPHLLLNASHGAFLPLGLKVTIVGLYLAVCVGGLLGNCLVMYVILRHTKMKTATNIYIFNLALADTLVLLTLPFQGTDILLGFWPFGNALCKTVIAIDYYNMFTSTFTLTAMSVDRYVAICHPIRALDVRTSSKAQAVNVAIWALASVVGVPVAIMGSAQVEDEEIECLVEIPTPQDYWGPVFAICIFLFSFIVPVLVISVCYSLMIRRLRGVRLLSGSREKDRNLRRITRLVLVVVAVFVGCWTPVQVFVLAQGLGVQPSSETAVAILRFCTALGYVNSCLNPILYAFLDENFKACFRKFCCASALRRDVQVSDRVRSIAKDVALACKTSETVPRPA

Row | pIC50 (Nociceptin receptor [1]) | logD [2] | pIC50 (Nociceptin receptor [3]) | pIC50 (Mu-type opioid receptor) | pIC50 [5] | SMILES | pIC50 [4]
1 | 6.82 |  |  |  |  | Cc1c(CNCCC(C)C)nn(-c2ccc(Cl)cc2Cl)c1-c1ccc(Cl)cc1 | 
2 | 8.09 | 2.5 |  |  |  | Cc1ccc(-c2c(C)c(CNC3CCCC3)nn2-c2ncc(Cl)cc2Cl)cn1 | 
3 | 8.60 | 1.3 | 9.00 |  |  | Cc1ccc(-c2c(C)c(CN[C@H]3CC[C@@H](F)C3)nn2-c2ncccc2Cl)cn1 | 
4 |  | 2.9 |  |  |  | Cc1c(CNC2CCCC2)nn(-c2ccc(Cl)cc2Cl)c1-c1cccnc1 | 
5 | 7.89 | 1.6 |  |  |  | Cc1cncc(-c2c(C)c(CNC3CCCC3)nn2-c2ncccc2Cl)c1 | 5.05
6 | 7.48 | 1.2 |  |  |  | Cc1ccc(-c2c(C)c(CNC3CCCC3)nn2-c2ncccc2C)cn1 | 
7 | 7.17 | 2 |  |  |  | CCc1ccc(-c2c(C)c(CNC3CCCC3)nn2-c2ncccc2Cl)cn1 | 
8 | 7.55 | > 4 |  |  |  | Cc1c(CNC2CCCC2)nn(-c2ccc(Cl)cc2Cl)c1-c1ccc(Cl)cc1 | 7.64
9 | 7.44 | 1.9 |  |  |  | Cc1ccc(-c2c(C)c(CNC3CCCC3)nn2-c2ncccc2C(F)(F)F)cn1 | 

Second part, the compound before the results:

Row | SMILES | pIC50 (Nociceptin receptor [1]) | logD [2] | pIC50 (Nociceptin receptor [3]) | pIC50 (Mu-type opioid receptor) | pIC50 [5] | pIC50 [4]
10 | Cc1c(CN2CCCCC2)nn(-c2ccc(Cl)cc2Cl)c1-c1ccc(Cl)cc1 | 6.25 |  |  |  |  | 
11 | Cc1ncc(-c2c(C)c(CN[C@H]3CC[C@@H](F)C3)nn2-c2ncccc2Cl)cc1F | 9.28 | 1.8 | 9.51 | 5.25 | 6.28 | 4.39
12 | Cc1c(CNC2CCCCC2)nn(-c2ccc(Cl)cc2Cl)c1-c1ccc(Cl)cc1 | 7.12 |  |  |  |  | 
13 | Cc1c(CN(C(C)C)C2CCCCC2)nn(-c2ccc(Cl)cc2Cl)c1-c1ccc(Cl)cc1 | < 6.00 |  |  |  |  | 
14 | Cc1ccc(-c2c(C)c(CNC3CCC(F)(F)C3)nn2-c2ncccc2Cl)cn1 (stereo not given) | 8.03 | 2.1 | 8.35 |  |  | 4.68
15 | Cc1c(CNC2CCCC2)nn(-c2ccc(Cl)cc2Cl)c1-c1ccccn1 | 6.28 |  |  |  |  | 
16 | Cc1c(CNC2CCCC2)nn(-c2ncccc2Cl)c1-c1cccnc1 | 7.21 | 1.3 |  |  |  | 4.64
17 | Cc1c(CNC2CCCC2)nn(-c2ncccc2Cl)c1-c1ccc(Cl)nc1 | 7.96 | 2.1 | 7.92 |  |  | 5.57
18 | Cc1c(CNC(C)C)nn(-c2ccc(Cl)cc2Cl)c1-c1ccc(Cl)cc1 | 6.46 |  | 6.32 |  |  | 7.64
19 | Cc1c(CNC2CCCC2)nn(-c2ncccc2Cl)c1-c1ccc(C(F)(F)F)nc1 | 6.57 | 2.2 |  |  |  | 
20 | Cc1ccc(-c2c(C)c(CNC3CCCC3)nn2-c2ncccc2S(C)(=O)=O)cn1 | 7.14 |  |  |  |  | 
21 | Cc1ccc(-c2c(C)c(CNC3CCCC3)nn2-c2ncccc2Cl)cn1 | 8.40 | 1.7 | 8.33 |  |  | 4.80
22 | Cc1c(CN(C)C2CCCCC2)nn(-c2ccc(Cl)cc2Cl)c1-c1ccc(Cl)cc1 | < 6.00 |  |  |  |  | 
23 | Cc1c(CNC2CCCC2)nn(-c2ccc(Cl)cc2Cl)c1-c1ccncc1 | < 6.00 |  |  |  |  | 
24 | Cc1ncc(-c2c(C)c(CNC3CCCC3)nn2-c2ncccc2Cl)cc1F | 8.96 | 2.1 | 8.92 |  |  | 
25 | Cc1ccc(-c2c(C)c(CNC3CCCC3F)nn2-c2ncccc2Cl)cn1 (stereo not given) | 8.15 | 2 | 7.96 |  |  | 4.52
26 | Cc1c(CNCC(C)C)nn(-c2ccc(Cl)cc2Cl)c1-c1ccc(Cl)cc1 | 6.82 |  |  |  |  | 

From ChEMBL document CHEMBL1136941, “Discovery of novel arylpyrazole series as potent and selective opioid receptor-like 1 (ORL1) antagonists” (Bioorg Med Chem Lett, 2009)
